# Measured values from patent US20260232835A1, “AFFIBODY MICELLE DRUG CONJUGATE” (KOWA COMPANY, LTD., priority 2022, published 2026).
# pIC50: −log10 of the molar value.
# Assays:
# [1] = test system: HER2 antigen-positive human cancer cell line HCC-1954; experiment: Cytotoxic test (CellTiter-Glo cell viability), HCC-1954; format: cell-based; details: cultured for 4 days
# Description: (§1) The mertansine (DM1) (Cayman CHEMICAL) was dissolved in dimethyl sulfoxide (DMSO: FUJIFILM Wako Pure Chemical Corporation) to prepare DM1 solutions of 60 μmol/L, 20 μmol/L, 6.7 μmol/L, 2.2 μmol/L, 0.74 μmol/L, 0.25 μmol/L, 0.082 μmol/L, and 0.027 μmol/L. Next, after a dilution series of 60 nmol/L, 20 nmol/L, 6.7 nmol/L, 2.2 nmol/L, 0.74 nmol/L, 0.25 nmol/L, 0.082 nmol/L, and 0.027 nmol/L were created by respectively diluting these solutions with RPMI1640 (hereinafter, RPMI1640 medium) containing 10% fetal bovine serum (Merck KGaA), these solutions were respectively added to a cell culture microplate in equal amounts to a cell culture liquid, and diluted to 1/2, thereby evaluating the cytotoxic effects thereof at a final DM1 concentration of 30 nmol/L, 10 nmol/L, 3.3 nmol/L, 1.1 nmol/L, 0.37 nmol/L, 0.12 nmol/L, 0.041 nmol/L, or 0.014 nmol/L.
# (§2) A HER2 antigen-positive human gastric cancer cell line HCC-1954 (American Type Culture Collection) or a HER2 antigen-negative human breast cancer cell line MDA-MB-468 (American Type Culture Collection) was adjusted to a cell concentration of 2.0×10^4 cells/mL with the RPMI1640 medium, and 100 μL each was added to the 96 well microplate for cell culture and cultured overnight. […] The light emission amount was then measured with the plate reader (Molecular Devices, LLC.). The cell viability was calculated by the following equation. […]
# [2] = test system: human breast cancer cell line MDA-MB-468; experiment: Cytotoxic test (CellTiter-Glo cell viability), MDA-MB-468; format: cell-based; details: Table 8, cultured for 4 days, read-out: IC50 HER2-negative MDA-MB-468
# Description: as §1, §2
# [3] = test system: mouse colon cancer cell line C26; experiment: Drug efficacy test in cancer-carrying nude mice with subcutaneously transplanted C26; format: in vivo; details: after 14 days from administration; tail vein, 3 times every other day; DACHPt-encapsulating SCNP 3 mg/kg in terms of Pt, oxaliplatin solution 8 mg/kg (3.9 mg/kg in terms of Pt)
# Description: Cancer-carrying models obtained by subcutaneously transplanting a mouse colon cancer cell line C26 (American Type Culture Collection) into female nude mice (BALB/c-nu/nu, 7 weeks old; Charles River Laboratories Japan, Inc.) were used for the drug efficacy test.
# The mouse colon cancer cell line C26 subcultured in a CO2 incubator was suspended in a liquid medium (Dulbecco's Modified Eagle's Medium-high glucose, Sigma-Aldrich), and injected subcutaneously in the back of each of the nude mice such that the number of cells per mouse was 1×106/100 μL. Then, the nude mice were raised for about 1 week, and then administration of the agent was started when an average value of tumor volumes was grown to about 30 mm^3. The DACHPt-encapsulating SCNP (DACHPt-encapsulating SCNP prepared using the copolymer of Example 70) was administered through the tail veins of the mice (3 times every other day), and antitumor effects were evaluated based on the tumor volumes (4 to 5 mice per 1 group). As a comparison, an oxaliplatin solution (Comparative Example 1) was used, and the oxaliplatin solution was administered in the same manner. The dose of each preparation was 8 mg/kg (3.9 mg/kg in terms of Pt) as the maximum administrable dose for the oxaliplatin solution, and 3 mg/kg in terms of Pt for the DACHPt-encapsulating SCNP. […]
SMILES,pIC50 [1],pIC50 [2],T/C: ratio of the tumor volume of the drug administration group (T) to that of the control group (C) [3]
"COc1cc2cc(c1Cl)N(C)C(=O)C[C@H](OC(=O)[C@H](C)N(C)C(=O)CCS)[C@]1(C)O[C@H]1[C@H](C)[C@@H]1C[C@@](O)(NC(=O)O1)[C@H](OC)/C=C/C=C(\C)C2 [Comparative example 2, mertansine, reference compound]",9.96,9.39,
"O=C1[O][Pt]2([NH][C@@H]3CCCC[C@H]3[NH]2)[O]C1=O [oxaliplatin solution, oxaliplatin]",,,1.1
